The source made the active and inactive calls.
Tests used:
[1] = Fraction unbound in human plasma; format: ADME, cell-free
[2] = target: T1, Sodium channel protein type 9 subunit alpha (Homo sapiens, UniProt Q15858); experiment: Inhibition of recombinant human Nav1.7 expressed in HEK293 cells assessed as association time constant at -70 mV holding potential by patch clamp electrophysiology method; format: cell-based
Target sequence in this assay (Q15858 whole entry, looked up): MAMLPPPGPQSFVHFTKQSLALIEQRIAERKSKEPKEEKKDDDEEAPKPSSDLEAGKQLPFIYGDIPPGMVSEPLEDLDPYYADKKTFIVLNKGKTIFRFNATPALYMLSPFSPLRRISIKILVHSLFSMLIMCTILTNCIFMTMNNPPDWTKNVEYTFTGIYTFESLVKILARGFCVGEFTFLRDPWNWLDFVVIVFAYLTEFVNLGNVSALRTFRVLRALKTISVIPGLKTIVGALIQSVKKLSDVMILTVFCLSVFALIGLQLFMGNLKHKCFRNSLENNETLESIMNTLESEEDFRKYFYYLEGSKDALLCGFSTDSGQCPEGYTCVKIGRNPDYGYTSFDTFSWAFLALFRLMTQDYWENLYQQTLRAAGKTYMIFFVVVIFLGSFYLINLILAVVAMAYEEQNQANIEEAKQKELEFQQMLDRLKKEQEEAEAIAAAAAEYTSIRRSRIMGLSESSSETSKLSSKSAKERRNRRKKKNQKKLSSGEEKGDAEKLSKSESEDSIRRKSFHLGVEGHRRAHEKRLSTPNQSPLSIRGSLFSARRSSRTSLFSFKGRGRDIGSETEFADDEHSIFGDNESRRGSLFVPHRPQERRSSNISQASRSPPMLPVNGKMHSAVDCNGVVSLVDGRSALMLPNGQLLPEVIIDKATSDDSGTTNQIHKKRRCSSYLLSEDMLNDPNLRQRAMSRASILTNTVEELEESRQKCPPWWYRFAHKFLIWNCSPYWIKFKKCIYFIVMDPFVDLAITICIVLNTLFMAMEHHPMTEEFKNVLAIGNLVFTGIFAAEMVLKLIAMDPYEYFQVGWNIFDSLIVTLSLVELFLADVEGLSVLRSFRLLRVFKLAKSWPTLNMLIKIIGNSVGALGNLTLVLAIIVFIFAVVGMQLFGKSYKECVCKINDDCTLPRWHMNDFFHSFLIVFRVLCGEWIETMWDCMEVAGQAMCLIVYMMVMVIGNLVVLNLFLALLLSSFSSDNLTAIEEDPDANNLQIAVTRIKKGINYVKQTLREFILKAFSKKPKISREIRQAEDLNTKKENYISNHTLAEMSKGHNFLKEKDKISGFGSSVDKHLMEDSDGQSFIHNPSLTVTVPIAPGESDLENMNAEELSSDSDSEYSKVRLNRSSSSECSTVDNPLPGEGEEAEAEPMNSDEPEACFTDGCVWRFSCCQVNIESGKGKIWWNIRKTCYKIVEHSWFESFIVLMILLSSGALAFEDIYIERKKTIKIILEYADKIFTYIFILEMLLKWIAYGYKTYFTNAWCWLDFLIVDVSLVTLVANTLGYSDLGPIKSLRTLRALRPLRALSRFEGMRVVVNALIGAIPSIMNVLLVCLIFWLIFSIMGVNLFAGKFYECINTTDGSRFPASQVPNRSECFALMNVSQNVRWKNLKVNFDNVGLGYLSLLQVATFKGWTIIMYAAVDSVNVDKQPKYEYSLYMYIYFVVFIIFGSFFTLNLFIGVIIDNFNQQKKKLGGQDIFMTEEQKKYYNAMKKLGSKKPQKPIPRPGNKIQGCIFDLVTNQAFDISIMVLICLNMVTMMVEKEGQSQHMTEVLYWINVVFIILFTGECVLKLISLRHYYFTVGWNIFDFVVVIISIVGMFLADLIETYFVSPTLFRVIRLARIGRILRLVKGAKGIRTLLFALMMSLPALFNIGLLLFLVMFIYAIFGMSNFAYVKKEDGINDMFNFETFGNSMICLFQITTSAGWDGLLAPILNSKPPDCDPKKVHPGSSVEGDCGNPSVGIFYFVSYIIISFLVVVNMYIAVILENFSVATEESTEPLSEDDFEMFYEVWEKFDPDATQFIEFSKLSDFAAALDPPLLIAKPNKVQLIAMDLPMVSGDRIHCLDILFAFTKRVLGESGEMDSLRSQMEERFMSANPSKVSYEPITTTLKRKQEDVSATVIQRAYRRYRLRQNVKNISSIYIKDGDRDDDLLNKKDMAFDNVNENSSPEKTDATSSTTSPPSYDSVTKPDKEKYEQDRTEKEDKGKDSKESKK

[3] = Unbound plasma concentration in CD1 mouse model of CFA-induced thermal hyperalgesia at 3 to 30 mg/kg, ip; format: ADME, organism-based; conditions: in vivo
[4] = target: T2, Cytochrome P450 2B6 (Homo sapiens, UniProt P20813); experiment: Inhibition of CYP2B6 in human liver microsomes; format: ADME
T2 sequence (P20813 whole entry): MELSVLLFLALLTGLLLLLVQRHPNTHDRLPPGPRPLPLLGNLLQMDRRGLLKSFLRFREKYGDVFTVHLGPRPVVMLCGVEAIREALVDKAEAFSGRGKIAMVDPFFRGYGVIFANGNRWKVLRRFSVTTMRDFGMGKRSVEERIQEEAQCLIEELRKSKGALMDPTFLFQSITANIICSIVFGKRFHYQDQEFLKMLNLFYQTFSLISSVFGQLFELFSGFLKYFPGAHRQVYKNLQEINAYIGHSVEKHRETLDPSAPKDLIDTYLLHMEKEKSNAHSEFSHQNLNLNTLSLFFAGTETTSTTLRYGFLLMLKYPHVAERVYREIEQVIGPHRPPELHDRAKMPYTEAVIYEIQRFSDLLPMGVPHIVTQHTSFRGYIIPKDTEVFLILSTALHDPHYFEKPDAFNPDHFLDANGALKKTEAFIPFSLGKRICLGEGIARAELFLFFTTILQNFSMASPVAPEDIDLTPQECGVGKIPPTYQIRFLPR

[5] = target: T3, Sodium channel protein type 9 subunit alpha (Mus musculus, UniProt Q62205); experiment: Inhibition of recombinant mouse Nav1.7 expressed in HEK293 cells at -70 mV holding potential by patch clamp electrophysiology method; format: cell-based
[6] = Ratio of fraction unbound in mouse DRG neurons to IC50 for mouse DRG Nav1.7 at -70 mV holding potential by patch clamp electrophysiology method
[7] = Metabolic stability in rat liver microsomes assessed as parent compound remaining at 0.5 uM after 10 mins; format: ADME, Microsome; conditions: read-out: Stability
[8] = Fraction unbound in mouse trigeminal ganglia neuron tissue; format: ADME, tissue-based, Trigeminal ganglion
[9] = target: T4, Cytochrome P450 2C9 (Homo sapiens, UniProt P11712); experiment: Inhibition of CYP2C9 in human liver microsomes; format: ADME
[10] = target: T1, Sodium channel protein type 9 subunit alpha; experiment: Inhibition of human Nav1.7 expressed in HEK293 cells after 600 secs at -60 mV holding potential by ion works barracuda population patch clamp method; format: cell-based
Target sequence in this assay (Q15858 whole entry): as the sequence (Q15858 whole entry, looked up) above

[11] = Permeability from basolateral to apical side in human Caco2 cells; format: ADME, cell-based; conditions: Caco-2, read-out: permeability
[12] = target: T1, Sodium channel protein type 9 subunit alpha; experiment: Inhibition of recombinant human Nav1.7 expressed in HEK293 cells at -70 mV holding potential by patch clamp electrophysiology method; format: cell-based
Target sequence in this assay (Q15858 whole entry): as the sequence (Q15858 whole entry, looked up) above

[13] = target: T2, Cytochrome P450 2B6; experiment: Time-dependant inhibition of CYP2B6 in human liver microsomes; format: ADME
[14] = target: T5, Cytochrome P450 3A4 (Homo sapiens, UniProt P08684); experiment: Time-dependant inhibition of CYP3A4 in human liver microsomes; format: ADME
[15] = target: T3, Sodium channel protein type 9 subunit alpha; experiment: Inhibition of Nav1.7 in mouse DRG neurons at -70 mV holding potential by patch clamp electrophysiology method
[16] = target: T5, Cytochrome P450 3A4; experiment: Inhibition of CYP3A4 in human liver microsomes; format: ADME
[17] = Permeability of the compound at pH 7.4 by PAMPA; format: ADME; conditions: read-out: permeability
[18] = test system: Mus musculus; experiment: Analgesic activity in CD1 mouse model of CFA-induced thermal hyperalgesia assessed as reduction in thermal response latency at 30 mg/kg, ip administered 72 hrs post CFA challenge and measured at 60 mins post dose by Hargreave's test; format: functional, organism-based
[19] = Permeability of the compound at pH 5.5 by PAMPA; format: ADME; conditions: read-out: permeability
[20] = test system: Mus musculus; experiment: Reduction in mechanoreceptor-mediated afferent transmission in mouse assessed as effect on sural nerve mechanosensitivity at 30 mg/kg, ip measured at 5 to 120 mins post dose at 1.6 mN threshold pressure; format: functional, organism-based
[21] = Metabolic stability in human liver microsomes assessed as parent compound remaining at 0.5 uM after 10 mins; format: ADME, Microsome; conditions: read-out: Stability
[22] = Plasma concentration in CD1 mouse model of CFA-induced thermal hyperalgesia at 3 to 30 mg/kg, ip; format: ADME, organism-based; conditions: in vivo
[23] = target: Cytochrome P450 2D6 (Homo sapiens, UniProt P10635); experiment: Inhibition of CYP2D6 in human liver microsomes; format: ADME
[24] = target: T6, Cytochrome P450 2C8 (Homo sapiens, UniProt P10632); experiment: Inhibition of CYP2C8 in human liver microsomes; format: ADME
T6 sequence (P10632 whole entry): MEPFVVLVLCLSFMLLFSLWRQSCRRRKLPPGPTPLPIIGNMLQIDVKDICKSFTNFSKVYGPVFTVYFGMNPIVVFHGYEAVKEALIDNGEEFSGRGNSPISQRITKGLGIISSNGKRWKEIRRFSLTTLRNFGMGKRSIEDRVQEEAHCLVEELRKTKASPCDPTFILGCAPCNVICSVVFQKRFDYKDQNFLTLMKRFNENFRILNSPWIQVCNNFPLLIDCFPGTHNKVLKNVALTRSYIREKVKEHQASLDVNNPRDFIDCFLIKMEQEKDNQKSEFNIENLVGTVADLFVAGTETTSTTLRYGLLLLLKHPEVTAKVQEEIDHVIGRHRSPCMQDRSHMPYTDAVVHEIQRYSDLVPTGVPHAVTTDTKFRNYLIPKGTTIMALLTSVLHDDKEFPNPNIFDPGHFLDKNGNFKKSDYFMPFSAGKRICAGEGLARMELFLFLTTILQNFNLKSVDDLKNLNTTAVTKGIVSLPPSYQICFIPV

[25] = target: T7, Cytochrome P450 2C19 (Homo sapiens, UniProt P33261); experiment: Inhibition of CYP2C19 in human liver microsomes; format: ADME
[26] = target: T6, Cytochrome P450 2C8; experiment: Time-dependant inhibition of CYP2C8 in human liver microsomes; format: ADME
[27] = target: T7, Cytochrome P450 2C19; experiment: Time-dependant inhibition of CYP2C19 in human liver microsomes; format: ADME
[28] = Ratio of unbound plasma concentration in CD1 mouse model of CFA-induced thermal hyperalgesia at 3 to 30 mg/kg, ip to IC50 for recombinant mouse Nav1.7 expressed in HEK293 cells at -70 mV holding potential by patch clamp electrophysiology method; format: ADME, organism-based; conditions: in vivo
[29] = test system: Mus musculus; experiment: Analgesic activity in CD1 mouse model of CFA-induced thermal hyperalgesia assessed as reduction in thermal response latency at 30 mg/kg, ip administered 72 hrs post CFA challenge and measured at 180 mins post dose by Hargreave's test; format: functional, organism-based
[30] = Efflux ratio of permeability in human Caco2 cells; format: ADME, cell-based; conditions: Caco-2
[31] = target: T4, Cytochrome P450 2C9; experiment: Time-dependant inhibition of CYP2C9 in human liver microsomes; format: ADME
[32] = Plasma concentration in mouse model of mechanoreceptor-mediated afferent transmission at 30 mg/kg, ip after 2 hrs; format: ADME, organism-based
[33] = Permeability from apical to basolateral side in human Caco2 cells; format: ADME, cell-based; conditions: Caco-2, read-out: permeability
[34] = Fraction unbound in mouse DRG neurons; format: ADME, cell-based, DRG neuron

T5 sequence (P08684 whole entry): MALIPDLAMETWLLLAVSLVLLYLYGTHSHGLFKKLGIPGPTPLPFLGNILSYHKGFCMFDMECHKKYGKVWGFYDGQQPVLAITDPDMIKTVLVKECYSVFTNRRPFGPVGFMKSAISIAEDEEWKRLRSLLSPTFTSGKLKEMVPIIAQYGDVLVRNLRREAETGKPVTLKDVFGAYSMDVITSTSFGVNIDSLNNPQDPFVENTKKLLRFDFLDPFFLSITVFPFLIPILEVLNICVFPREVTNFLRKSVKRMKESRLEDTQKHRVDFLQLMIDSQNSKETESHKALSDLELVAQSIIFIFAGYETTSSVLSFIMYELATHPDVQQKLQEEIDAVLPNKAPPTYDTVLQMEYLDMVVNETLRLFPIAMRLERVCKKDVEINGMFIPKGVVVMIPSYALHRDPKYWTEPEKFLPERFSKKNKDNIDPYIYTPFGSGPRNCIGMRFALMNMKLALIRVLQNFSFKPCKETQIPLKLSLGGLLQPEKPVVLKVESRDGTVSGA
T7 sequence (P33261 whole entry): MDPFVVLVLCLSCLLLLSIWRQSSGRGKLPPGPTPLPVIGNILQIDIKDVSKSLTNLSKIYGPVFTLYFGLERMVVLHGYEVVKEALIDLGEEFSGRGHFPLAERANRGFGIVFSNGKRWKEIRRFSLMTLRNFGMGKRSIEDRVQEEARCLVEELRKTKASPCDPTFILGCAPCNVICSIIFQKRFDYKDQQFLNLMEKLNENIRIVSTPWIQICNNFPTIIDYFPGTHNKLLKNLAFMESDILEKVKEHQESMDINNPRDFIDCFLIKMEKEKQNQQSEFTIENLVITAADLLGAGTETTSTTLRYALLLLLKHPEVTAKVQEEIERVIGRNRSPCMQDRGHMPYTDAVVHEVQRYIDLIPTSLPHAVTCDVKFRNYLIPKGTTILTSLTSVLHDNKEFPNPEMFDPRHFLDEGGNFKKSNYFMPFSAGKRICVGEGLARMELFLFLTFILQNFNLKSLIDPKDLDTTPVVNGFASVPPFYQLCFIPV
T4 sequence (P11712 whole entry): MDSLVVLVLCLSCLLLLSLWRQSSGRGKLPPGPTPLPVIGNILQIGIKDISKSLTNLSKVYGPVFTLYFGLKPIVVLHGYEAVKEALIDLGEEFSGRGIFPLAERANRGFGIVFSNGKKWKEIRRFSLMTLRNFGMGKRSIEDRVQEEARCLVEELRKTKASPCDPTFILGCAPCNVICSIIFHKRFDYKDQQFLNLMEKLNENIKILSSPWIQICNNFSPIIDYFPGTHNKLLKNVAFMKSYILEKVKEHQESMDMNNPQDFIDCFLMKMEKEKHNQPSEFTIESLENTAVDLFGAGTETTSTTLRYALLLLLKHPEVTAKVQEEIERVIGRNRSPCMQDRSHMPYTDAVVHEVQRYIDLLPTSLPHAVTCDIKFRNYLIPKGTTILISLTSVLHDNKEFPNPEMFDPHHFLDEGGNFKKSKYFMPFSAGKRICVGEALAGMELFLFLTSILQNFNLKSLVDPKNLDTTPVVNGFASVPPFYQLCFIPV
Chain of Cytochrome P450 2D6 (P10635 whole entry): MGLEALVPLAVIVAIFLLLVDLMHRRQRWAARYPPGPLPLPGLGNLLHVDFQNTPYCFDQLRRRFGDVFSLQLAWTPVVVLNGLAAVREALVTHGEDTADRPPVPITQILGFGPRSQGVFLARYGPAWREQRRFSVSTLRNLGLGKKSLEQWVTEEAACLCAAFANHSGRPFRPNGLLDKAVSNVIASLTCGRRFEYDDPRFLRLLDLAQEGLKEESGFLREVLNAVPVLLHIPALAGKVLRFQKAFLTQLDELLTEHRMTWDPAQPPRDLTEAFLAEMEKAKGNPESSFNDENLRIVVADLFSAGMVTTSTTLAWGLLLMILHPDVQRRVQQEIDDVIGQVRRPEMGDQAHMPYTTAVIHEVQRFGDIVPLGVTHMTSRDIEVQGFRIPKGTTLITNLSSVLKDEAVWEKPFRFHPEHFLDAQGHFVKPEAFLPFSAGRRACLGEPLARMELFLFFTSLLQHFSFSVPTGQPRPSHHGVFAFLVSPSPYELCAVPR

fraction unbound [1] | TIME [2] [h] | Cp(f) [3] [µM] | IC50 [4] [nM] | IC50 [5] [nM] | Ratio [6] | remaining at 10 min, 0.5 µM [7] [%] | fraction unbound [8] | IC50 [9] [nM] | IC50 [10] [nM] | Papp B→A [11] [×10⁻⁶ cm/s] | IC50 [12] [nM] | TDI [13] | TDI [14] | IC50 [15] [nM] | IC50 [16] [nM] | Papp [17] [×10⁻⁶ cm/s] | Papp [19] [×10⁻⁶ cm/s] | Structure (SMILES) | Activity [18] | Activity [20] | also measured
0.008 | 0.00336 | 0.532 | > 40000 | 115 | 5.5 | 98 | 0.069 | 27000 | 89 | 18.6 | 25 | Not Active | Not Active | 14 | 15000 | 16.4 | 80.2 | CC(C)COc1ccc(-c2cn(C)c3cc(C(=O)NS(C)(=O)=O)c(F)cc23)cn1 | inactive | inactive | remaining at 10 min, 0.5 µM [21]: 98%; concentration [22]: 38 µM; IC50 [23]: > 40000 nM; IC50 [24]: 1000 nM; IC50 [25]: 4000 nM; TDI [26]: Not Active; TDI [27]: Not Active; Ratio [28]: 4 to 5; Activity [29]: inactive; efflux ratio [30]: 3.1; TDI [31]: Not Active; concentration at 2 h [32]: 57 µM; Papp A→B [33]: 6.1 ×10⁻⁶ cm/s; fraction unbound [34]: 0.085
< 0.001 | 0.00267 | 0.126 | 9700 | 35 | 8.7 | 66 | 0.035 | 9900 | 108 | 16.8 | 8 | Not Active | Not Active | 11 | > 40000 | 21.6 | 44.3 | CC(C)COc1ncc(-c2cn(C)c3cc(C(=O)NS(C)(=O)=O)ccc23)cc1Cl | Active | inactive | remaining at 10 min, 0.5 µM [21]: 95%; concentration [22]: 63 µM; IC50 [23]: > 40000 nM; IC50 [24]: 1000 nM; IC50 [25]: 28000 nM; TDI [26]: Not Active; TDI [27]: Not Active; Ratio [28]: 4 to 5; Activity [29]: inactive; efflux ratio [30]: > 5.5; TDI [31]: Not Active; concentration at 2 h [32]: 89 µM; Papp A→B [33]: < 1.5 ×10⁻⁶ cm/s; fraction unbound [34]: 0.035

Source: ChEMBL document CHEMBL4371076 (J Med Chem, 2019)
